EPA's ToxValDB 9.5 (doi:10.2903/j.efsa.2011.2018)
≈ marks a conversion by molar mass, not a printed value.

Tests used:
Aphidius rhopalosiphi = experiment: LR50; higher = less toxic; settings: not reported; mortality
Lepomis macrochirus = settings: acute; duration: 96 hours; mortality
Apis mellifera = settings: acute; duration: 48 hours; dermal; mortality
Anas platyrhynchos = settings: short-term; oral; feed; mortality
Folsomia candida = settings: chronic/long-term; duration: 28 days; mortality
Tagia sp. = settings: acute; duration: 14 days; mortality

SMILES: [O-][n+]1nc(-n2ccnc2)nc2ccc(Cl)cc21 [Triazoxide]
- LR50 (Aphidius rhopalosiphi): > 5.13 g/ha
- LD50 (Rattus norvegicus; acute, oral, mortality): 14 mg/kg-day
- LOAEL (Rattus norvegicus; chronic, duration: 2 years, gross pathology): 0.05 mg/kg-day
- NOEL (Rattus norvegicus; reproduction developmental, no effects): 2.04 mg/kg-day
- NOAEL (Rattus norvegicus; short-term, duration: 28 days): 1.5 mg/kg-day
- NOAEL (Rattus norvegicus; subchronic, duration: 90 days, oral, hematological): 0.21 mg/kg-day
- LC50 (Lepomis macrochirus): 0.077 µg/mL (≈ 0.311 µM)
- LD50 (Apis mellifera): > 200 µg/piece
- LC50 (Anas platyrhynchos): 268 mg/kg-day
- NOEC (Folsomia candida): 500 mg/kg
- LC50 (Tagia sp.): > 1000 mg/kg
- LD50 (Coturnix japonica; acute, oral, mortality): 90 mg/kg-day
- NOEC (Coturnix japonica; reproduction developmental, duration: 6 weeks): 11.7 mg/kg-day
